Laboratory results reported in ChEMBL document CHEMBL3507680, “University of Dundee, Gates Library screen for HepG2 cell viability”.

Assay: Human HepG2 cell viability assay in 384 well format
Assay type: toxicity, cell-based
Parameters: dose 125 nL, time 70.5 hour; cytotoxicity at 70.5 h: concentration not given beside the values
Conditions: HepG2 cells, read-out: Inhibition

SMILES | cytotoxicity at 70.5 h [%]
CCS(=O)(=O)NC[C@]12COC[C@H]1CN(Cc1cc(C)on1)C2 | -6.04
O=C(NCC1CC1)[C@H]1C[C@@H]2CCN(Cc3nccs3)C[C@@H]2O1 | -2.02
O=C1CC(c2cccnc2)C2(CCN(C(=O)c3ccncc3)CC2)N1 (configuration not stated) | -1.04
Cc1occc1C(=O)N1CCC2(CCC2NC(=O)c2ccn(C)c2)CC1 (configuration not stated) | -2.29
O=C1CC[C@@H]2[C@@H](CCN2C(=O)c2ccsc2)N1CC1CC1 | -6.8
NC(=O)N1CCC2(CC1)CN(c1ccsc1)C(=O)CO2 | 17.7
COCCC(=O)N1CCC2(COCc3cnc(-c4ccccc4)nc32)C1 (configuration not stated) | 2.54
CCS(=O)(=O)N1C[C@H]2C[C@H](C(=O)N(C)C)[C@@H](C1)O2 | -19.2
CN(C)[C@@H]1CCN(C(=O)c2ccsc2)[C@H]1Cc1cnn(C)c1 | -14.4
COc1ncccc1CN1CCn2c(Cn3cncn3)cnc2C1 | 20.3
Cc1cc(C(=O)N2CCC(n3nc(C)cc3C)C2)c2ccc(F)cc2n1 (configuration not stated) | -9.21
Cc1ccc(F)c(C(=O)N2C[C@@H](C(=O)O)[C@H](c3ccccc3)C2)c1Cl | 1.54
COCC[C@]1(O)CCN(Cc2nc(C(C)C)cs2)C[C@H]1C | -6.41
COCCN1CC2(CCC1=O)CCN(Cc1nnc(C)o1)CC2 | -5.52
Cc1ncsc1C(=O)NCc1cccnc1N(C)CCc1ccccn1 | -5.9
O=C1[C@H]2CC[C@H](CN(c3ncnc4ccsc34)C2)N1CC1CC1 | -11
Cc1nc(N(C)C)nc(-c2cccc(-c3ccn(CCCO)n3)c2)c1C | -7.13
CN1[C@H]2CC[C@@H]1CN(C(=O)CCc1csc(N)n1)CC2 | -11.5
CC(C)C1CN(Cc2nccn2C)CCC(=O)N1CC1CC1 (configuration not stated) | -2.87
CCCn1c(C)c(CC(=O)N(C)CCO)c2c1CC(C)(C)CC2=O | 26.2
Cc1ccc(S(=O)(=O)NCC2CNCCOC2)cc1Cl (configuration not stated) | -2.6
Cc1ccc2nc(C)c(C)c(C(=O)N3CCC4(CCO4)CC3)c2c1 | -5.61
CCN(Cc1cnn(C)c1)C[C@H]1CC[C@@H](Cc2ccc(C#N)cc2)O1 | -17.4
C=C(C)CNC(=O)C1CCC(=O)N(C2CCCC2)C1 (configuration not stated) | -2.49
Cc1nc(CN2CCC3(CCCO3)CC2)c2ccccn12 | 14.9
CN(Cc1nc(COc2ccccc2)no1)CC1Cc2ccccc2O1 (configuration not stated) | -3.44

SMILES | cytotoxicity at 70.5 h [%]
COC(C)(C)C(=O)N[C@H]1CN(c2ncccc2C(N)=O)C[C@@H]1C(C)C | 0.335
Cc1nc(C(C)NCc2cc(O)c3cccc(F)c3n2)cs1 (configuration not stated) | -6.76
CCc1nnc(NC(=O)CCN2CC=C(c3cnn(C)c3)CC2)s1 | -7.5
Cc1nn2c(NCC(N)=O)cc(-c3ccccc3)nc2c1C | 15.2
CCc1cnc(NCc2nc(COC)no2)nc1 | -11.1
Cc1cc(C(=O)NC2CCCCNC2=O)c(=O)[nH]c1C (configuration not stated) | -6.38
CCOCCC(=O)Nc1cc(C(N)=O)ccc1N1CCCC(C)C1 (configuration not stated) | -2.01
CC(C)[C@@H]1CN(Cc2ccsc2)C[C@H]1NS(=O)(=O)N(C)C | 1.27
CN(Cc1ccc2nsnc2c1)CC1(O)CCNC1 (configuration not stated) | -5.93
CCN1CCC(CNS(=O)(=O)N2CCc3ccccc3C2)C1 (configuration not stated) | 6.73
CC(C)c1noc(CN(Cc2cccnc2)C2CN3CCC2CC3)n1 (configuration not stated) | 52.5
Cc1ccc2cc(C3(O)CCN(C(=O)CSC(C)C)CC3)ccc2n1 | -6
O=C(O)C1(n2cccn2)CCN(Cc2nc(-c3ccccc3)no2)CC1 | -9.66
COc1cccc(CC(=O)N2CCc3ncnc(NCCO)c3CC2)c1 | -9.99
CNS(=O)(=O)CCn1cc(-c2ccc(NC(C)=O)cc2)nn1 | 3.8
O=C(N[C@H]1CN(C2CCOCC2)C[C@@H]1C1CC1)c1cc(O)no1 | -7.33
COc1nccc(N2CC[C@H](N3CCOCC3)[C@H](CCCO)C2)c1C#N | -7.48
COCCN1CC2(CCCN(C(=O)CCCc3cccs3)C2)CCC1=O (configuration not stated) | 9.49
Cc1ccccc1-n1ncc(C(C)N)c1C (configuration not stated) | 26.7
CC(=O)Nc1ccc2nc(-c3nccn3CCCN(C)C)ccc2c1 | -8.35
OCC1CCN(C[C@@H]2CN(C3Cc4ccccc4C3)C[C@@H]2CO)CC1 | -4.9
Cc1ccc(OCC(=O)N2CCOCC(O)(CN3CCCC3)C2)cc1C (configuration not stated) | 27.8
CCc1cnc(C)nc1N1CCN(Cc2ccc(-c3cc[nH]n3)o2)CC1 | 9.84
Cc1c(-c2nnc(SCC(=O)O)n2C(C)c2ccccc2)cnn1C (configuration not stated) | -12.3
CCc1cc(NCCC(F)(F)F)nc(N2CCOCC2)n1 | -7.87
C=C(C)COc1cccc(C(=O)N2CCC(O)(c3ccccc3)CC2)c1 | 7.64

SMILES | cytotoxicity at 70.5 h [%]
Cc1ccccc1N1CC(C)N(Cc2ccc(C)c(F)c2F)CC1=O (configuration not stated) | 5.81
CC(C)(C(=O)NCC1CCN(Cc2ccccn2)C1)c1ccccc1 (configuration not stated) | 18.1
CCc1ccc(C(=O)N2CC[C@](C)(O)C(C)(C)C2)[nH]1 | -3.24
O=C(C1CCCO1)N1CCC(Cn2cc(C3CCCC3)nn2)CC1 (configuration not stated) | 2.36
O=C(CCn1cncn1)N1CCCC(CO)(CCCc2ccccc2)C1 (configuration not stated) | 15.8
CC(=O)N[C@@H]1CN(Cc2ccccc2-n2nc(C)cc2C)C[C@H]1C(C)C | -7.15
Cc1ccccc1CC(=O)N1CCCn2cncc2C1 | -9.13
Cc1cc(NC2CCCN(Cc3ccc(F)cc3)C2)n2nc(C)cc2n1 (configuration not stated) | -0.0493
Cc1[nH]c2ccc(Cl)cc2c1CCNc1ncnc2c1CCNC2 | -6.2
CCCN1CCC=C(C2c3nc[nH]c3CCN2C(=O)c2ccco2)C1 (configuration not stated) | 22.4
O=C(Cn1[nH]c2ccccc2c1=O)N1CCCC(CC2CC2)(C(=O)O)C1 (configuration not stated) | -7.99
CNC(=O)c1ccnc(CC2COc3c(cccc3OC)C2)c1 (configuration not stated) | -25.4
CCNc1ncc(CN(Cc2ccccc2)CC(C)CO)cn1 (configuration not stated) | -4.08
CC(C)Nc1cc(N2CCN(Cc3ccccc3)C(CCO)C2)ncn1 (configuration not stated) | -1.73
Cc1nc(O)cc(C2CCN(C(=O)C(C)Cn3nc(C)nc3C)CC2)n1 (configuration not stated) | -4.5
C[C@@H](O)[C@H](NC(=O)c1csc2nc(-c3ccccc3F)cn12)C(N)=O | 2.4
O=C(NCc1cncc2c1CCN(Cc1cccs1)C2)C1CC1 | -13.8
CN1CC(=O)N(c2cccc(F)c2)CC12CCN(S(C)(=O)=O)C2 (configuration not stated) | -10.7
Fc1ccc(CN2CC[C@H]3O[C@@H](COCC4CCOCC4)CC[C@H]32)cc1 | 18.1
CN(C)CC(=O)N1CCC2(CC1)CN(c1ccsc1)C(=O)CO2 | 21
COCCN1C(=O)C[C@H]2[C@H]1CCN2Cc1ccc(OC)cc1 | -7.39
CCN(C)c1ncnc2c1CCN(Cc1csc(C)n1)CC2 | -12.4
N#Cc1cccc(CN2CC[C@@H]3[C@@H]2CC(=O)N3Cc2cccnc2)c1 | -18.9
c1ccc(CN2CC[C@@H]3O[C@H](COCc4ccncc4)CC[C@@H]32)nc1 | -13
c1ccc(CN2C[C@@H]3OCCN(c4ncccn4)[C@@H]3C2)nc1 | -12.9
